Measurements: article PMC7933930, “Development of a small molecule that corrects misfolding and increases secretion of Z α1‐antitrypsin” (EMBO Molecular Medicine, 2021)

Experiments:
Dopamine D2 = Dopamine D2 (Homo sapiens, UniProt P14416); assay: Off‐target panel: Dopamine D2; type: cell-based
Description: (§1) GSK716 selectivity and PK properties were profiled in order to investigate the suitability of GSK716 for progression into in vivo studies and the potential for taking it forward as a clinical candidate for testing in humans. Since GSK716 results in loss of inhibitory activity of α1‐antitrypsin, the effect of the compound was assessed on other closely related serpins. […] Furthermore, there were no off‐target effects in a panel of assays considered predictive of known safety liabilities that precluded further development of GSK716 (Table EV1).

antithrombin = antithrombin (Homo sapiens, UniProt P01008); assay: Inhibitory activity of antithrombin against thrombin; type: biochemical
Description: (§2) Figure 5 The effect of GSK716 on serpin inhibitory activity • α1‐Antitrypsin was incubated at varying molar ratios with the model protease bovine α‐chymotrypsin, and the residual protease activity determined. The intercept of the regression with the abscissa reflects the number of molecules of α1‐antitrypsin required to inhibit one molecule of chymotrypsin in the presence (+c) and absence (−c) of 50µM GSK716. Error bars reflect ± SEM of three independent experiments. • M α1‐antitrypsin was incubated with different molar ratios of chymotrypsin and resolved by SDS–PAGE. The position of covalent α1‐antitrypsin‐chymotrypsin complex (cpx), native (nat) and cleaved (clv) is shown. • The inhibitory activity of α1‐antichymotrypsin against chymotrypsin (ach + chym), neuroserpin against trypsin (neus + tryp), and antithrombin against thrombin (atiii + thrombin) was determined in the presence and absence of GSK716. Error bars reflect ± SD of two independent experiments.
(§3) GSK716 selectivity and PK properties were profiled in order to investigate the suitability of GSK716 for progression into in vivo studies and the potential for taking it forward as a clinical candidate for testing in humans. Since GSK716 results in loss of inhibitory activity of α1‐antitrypsin, the effect of the compound was assessed on other closely related serpins. […]

Adrenergic β2 [1] = biological target: T1, Adrenergic β2 (Homo sapiens, UniProt P07550); assay: Off‐target panel: Adrenergic β2; type: cell-based; settings: read-out: Mean (PXC50)
Description: as §1

neuroserpin = neuroserpin (Homo sapiens, UniProt Q99574); assay: Inhibitory activity of neuroserpin against trypsin; type: biochemical
Description: as §2, §3

Cannabinoid CB2 = Cannabinoid CB2 (Homo sapiens, UniProt P34972); assay: Off‐target panel: Cannabinoid CB2; type: cell-based
Description: as §1

Dopamine D1 = Dopamine D1 (Homo sapiens, UniProt P21728); assay: Off‐target panel: Dopamine D1 (DRX); type: cell-based
Description: as §1

Adrenergic β2 [2] = biological target: T1, Adrenergic β2; assay: Off‐target panel: Adrenergic β2 (DRX); type: cell-based; settings: read-out: Mean (PXC50)
Description: as §1

Serotonin 5HT2C = biological target: T2, Serotonin 5HT2C (Homo sapiens, UniProt P28335); assay: Off‐target panel: Serotonin 5HT2C (DRX); type: cell-based
T2 sequence (P28335 33-458): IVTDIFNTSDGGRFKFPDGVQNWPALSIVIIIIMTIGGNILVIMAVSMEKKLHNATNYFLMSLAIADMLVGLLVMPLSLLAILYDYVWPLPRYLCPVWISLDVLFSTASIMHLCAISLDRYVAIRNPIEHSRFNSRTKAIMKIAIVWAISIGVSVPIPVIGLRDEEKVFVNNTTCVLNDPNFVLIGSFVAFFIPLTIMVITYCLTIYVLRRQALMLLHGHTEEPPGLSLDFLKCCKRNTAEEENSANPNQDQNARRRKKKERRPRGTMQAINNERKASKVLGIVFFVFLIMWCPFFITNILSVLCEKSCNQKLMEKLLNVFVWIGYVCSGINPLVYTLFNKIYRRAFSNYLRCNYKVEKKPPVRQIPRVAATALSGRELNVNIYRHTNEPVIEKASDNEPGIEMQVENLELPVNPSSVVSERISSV
Description: as §1

[3] = test system: Z α1‐antitrypsin polymers in iPSC‐derived human hepatocytes (ZZ genotype); assay: Z α1‐antitrypsin polymerisation in ZZ iPSC‐derived human hepatocytes; type: cell-based; settings: Hepatocyte, n = 16, read-out: mean pIC50, polymerisation (converted)
mouse hepatocytes = assay: Hepatocyte clearance, mouse; type: in vitro ADME
Description: Williams E media supplemented with 2 mM L‐glutamine and 25 mM HEPES and test compound (final compound concentration 0.5 µM; final DMSO concentration 0.25% v/v) were preincubated at 37°C prior to the addition of a suspension of cryopreserved pooled hepatocytes (final cell density 0.5 × 10^6 viable cells/ml) to initiate the reaction. The final incubation volume was 500 µl. The reactions were stopped by transferring 50 µl of incubate to 100 µl acetonitrile containing internal standard at the appropriate time points (0, 5, 10, 20, 40 and 60 min, 0, 10, 20, 40, 60 and 120 min or 0, 20, 40, 60, 120 and 240 min). The control (lysed cells or vehicle) was incubated for 60, 120 or 240 min only. The termination plates were centrifuged at 2,500 rpm at 4°C for 30 min to precipitate the protein. Following protein precipitation, the sample supernatants were analysed by LC‐MS/MS. From a plot of loge peak area ratio (compound peak area/internal standard peak area) against time, the gradient of the line was determined and half‐life (t½) and intrinsic clearance (CLint) were calculated.

Vasopressin V1a = Vasopressin V1a (Homo sapiens, UniProt P37288); assay: Off‐target panel: Vasopressin V1a (DRX); type: cell-based; settings: Antagonist, read-out: Mean (PXC50)
Description: as §1

Dopamine D2 (DRD2S) = Dopamine D2 (DRD2S) (Homo sapiens, UniProt P14416); assay: Off‐target panel: Dopamine D2 (DRD2S) (DRX); type: cell-based
Description: as §1

OPRM1 = OPRM1 (Homo sapiens, UniProt P35372); assay: Off‐target panel: OPRM1 (DRX); type: cell-based
Description: as §1

Glucocorticoid Receptor = Glucocorticoid Receptor (Homo sapiens, UniProt P04150); assay: Off‐target panel: Glucocorticoid Receptor; type: cell-based; settings: Agonist, read-out: Mean (PXC50)
Description: as §1

T1 sequence (P07550 whole entry): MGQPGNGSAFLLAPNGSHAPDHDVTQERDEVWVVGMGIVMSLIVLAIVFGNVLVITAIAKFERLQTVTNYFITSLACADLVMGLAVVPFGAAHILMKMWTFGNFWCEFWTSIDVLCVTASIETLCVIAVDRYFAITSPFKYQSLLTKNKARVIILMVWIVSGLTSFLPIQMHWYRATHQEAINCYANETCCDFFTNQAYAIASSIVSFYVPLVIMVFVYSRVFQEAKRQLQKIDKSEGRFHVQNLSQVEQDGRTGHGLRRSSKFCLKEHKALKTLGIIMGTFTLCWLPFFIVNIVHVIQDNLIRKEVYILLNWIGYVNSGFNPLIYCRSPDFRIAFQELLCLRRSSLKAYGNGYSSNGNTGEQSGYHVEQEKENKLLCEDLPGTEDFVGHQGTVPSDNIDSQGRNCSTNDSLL
Chain of Dopamine D2 (P14416 whole entry): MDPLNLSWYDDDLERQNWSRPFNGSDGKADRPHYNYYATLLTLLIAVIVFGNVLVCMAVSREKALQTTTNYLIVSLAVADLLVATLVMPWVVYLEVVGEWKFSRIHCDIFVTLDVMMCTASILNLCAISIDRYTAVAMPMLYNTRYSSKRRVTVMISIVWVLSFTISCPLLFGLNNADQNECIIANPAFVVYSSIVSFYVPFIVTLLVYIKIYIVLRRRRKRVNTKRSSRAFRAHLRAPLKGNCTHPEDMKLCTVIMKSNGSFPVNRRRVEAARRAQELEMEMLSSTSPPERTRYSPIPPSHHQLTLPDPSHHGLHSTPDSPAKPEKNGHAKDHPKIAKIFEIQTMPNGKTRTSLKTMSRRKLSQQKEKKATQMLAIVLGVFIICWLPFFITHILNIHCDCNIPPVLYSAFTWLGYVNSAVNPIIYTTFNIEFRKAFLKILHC
Chain of Dopamine D2 (DRD2S) (P14416 1-414 isoform P14416-2): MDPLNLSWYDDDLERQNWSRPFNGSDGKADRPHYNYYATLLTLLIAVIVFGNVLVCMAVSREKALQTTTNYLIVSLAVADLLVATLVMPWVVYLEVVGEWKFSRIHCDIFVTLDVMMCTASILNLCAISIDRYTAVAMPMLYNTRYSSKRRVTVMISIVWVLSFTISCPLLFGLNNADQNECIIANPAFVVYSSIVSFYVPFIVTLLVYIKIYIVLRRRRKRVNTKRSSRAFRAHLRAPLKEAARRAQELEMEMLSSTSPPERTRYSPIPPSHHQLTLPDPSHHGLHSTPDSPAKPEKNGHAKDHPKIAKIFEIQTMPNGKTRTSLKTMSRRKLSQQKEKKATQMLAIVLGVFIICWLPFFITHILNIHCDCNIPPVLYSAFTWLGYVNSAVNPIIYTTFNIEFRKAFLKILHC
Chain of neuroserpin (Q99574 17-410, species assumed): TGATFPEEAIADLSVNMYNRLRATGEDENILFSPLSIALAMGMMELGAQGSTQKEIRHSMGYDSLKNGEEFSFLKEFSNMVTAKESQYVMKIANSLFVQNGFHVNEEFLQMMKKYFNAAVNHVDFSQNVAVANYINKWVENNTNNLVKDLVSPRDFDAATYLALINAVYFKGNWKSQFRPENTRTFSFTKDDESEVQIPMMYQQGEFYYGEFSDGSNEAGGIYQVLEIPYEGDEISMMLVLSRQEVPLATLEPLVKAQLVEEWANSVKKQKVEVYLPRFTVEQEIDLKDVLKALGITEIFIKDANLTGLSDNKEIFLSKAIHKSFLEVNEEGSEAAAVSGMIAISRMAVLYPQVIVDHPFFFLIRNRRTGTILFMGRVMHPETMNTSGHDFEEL
Chain of Glucocorticoid Receptor (P04150 whole entry, species assumed): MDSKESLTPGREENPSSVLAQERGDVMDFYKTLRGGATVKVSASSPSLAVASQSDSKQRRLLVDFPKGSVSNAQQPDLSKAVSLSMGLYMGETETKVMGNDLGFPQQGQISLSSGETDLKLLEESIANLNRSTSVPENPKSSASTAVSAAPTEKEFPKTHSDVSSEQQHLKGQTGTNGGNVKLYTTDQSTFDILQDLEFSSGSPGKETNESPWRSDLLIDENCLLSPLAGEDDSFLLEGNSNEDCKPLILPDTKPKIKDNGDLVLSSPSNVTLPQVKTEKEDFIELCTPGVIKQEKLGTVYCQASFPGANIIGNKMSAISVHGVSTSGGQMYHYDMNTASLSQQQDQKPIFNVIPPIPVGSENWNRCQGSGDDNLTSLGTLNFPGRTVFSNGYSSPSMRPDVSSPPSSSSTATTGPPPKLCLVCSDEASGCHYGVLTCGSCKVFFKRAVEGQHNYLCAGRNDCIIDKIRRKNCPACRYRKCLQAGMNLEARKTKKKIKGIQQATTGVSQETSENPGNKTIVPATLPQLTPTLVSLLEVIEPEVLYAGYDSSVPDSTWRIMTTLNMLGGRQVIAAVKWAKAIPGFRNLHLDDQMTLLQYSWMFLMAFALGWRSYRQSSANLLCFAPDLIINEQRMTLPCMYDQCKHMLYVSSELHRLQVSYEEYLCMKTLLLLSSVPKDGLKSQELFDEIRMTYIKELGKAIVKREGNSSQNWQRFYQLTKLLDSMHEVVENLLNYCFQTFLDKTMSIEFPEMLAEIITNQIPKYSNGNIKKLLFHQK
Chain of Cannabinoid CB2 (P34972 whole entry): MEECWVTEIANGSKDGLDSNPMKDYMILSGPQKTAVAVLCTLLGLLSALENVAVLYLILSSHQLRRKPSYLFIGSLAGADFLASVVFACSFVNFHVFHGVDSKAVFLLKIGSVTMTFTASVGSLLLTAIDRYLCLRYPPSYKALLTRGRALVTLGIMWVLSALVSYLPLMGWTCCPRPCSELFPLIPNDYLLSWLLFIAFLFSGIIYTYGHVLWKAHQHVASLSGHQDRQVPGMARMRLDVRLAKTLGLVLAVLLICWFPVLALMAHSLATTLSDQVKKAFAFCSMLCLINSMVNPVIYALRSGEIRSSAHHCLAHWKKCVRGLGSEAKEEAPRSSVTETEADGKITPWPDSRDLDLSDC
Chain of Vasopressin V1a (P37288 whole entry): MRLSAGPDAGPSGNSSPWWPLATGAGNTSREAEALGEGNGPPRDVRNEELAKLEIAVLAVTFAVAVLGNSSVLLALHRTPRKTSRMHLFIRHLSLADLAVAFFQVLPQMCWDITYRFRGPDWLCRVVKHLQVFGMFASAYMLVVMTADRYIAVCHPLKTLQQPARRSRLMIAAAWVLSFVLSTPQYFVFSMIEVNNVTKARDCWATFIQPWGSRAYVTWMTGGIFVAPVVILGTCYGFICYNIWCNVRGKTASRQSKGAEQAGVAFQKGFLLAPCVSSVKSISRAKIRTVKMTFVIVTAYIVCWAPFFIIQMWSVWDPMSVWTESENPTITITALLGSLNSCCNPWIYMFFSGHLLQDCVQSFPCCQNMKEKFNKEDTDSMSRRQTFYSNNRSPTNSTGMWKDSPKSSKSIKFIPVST
Chain of antithrombin (P01008 33-464): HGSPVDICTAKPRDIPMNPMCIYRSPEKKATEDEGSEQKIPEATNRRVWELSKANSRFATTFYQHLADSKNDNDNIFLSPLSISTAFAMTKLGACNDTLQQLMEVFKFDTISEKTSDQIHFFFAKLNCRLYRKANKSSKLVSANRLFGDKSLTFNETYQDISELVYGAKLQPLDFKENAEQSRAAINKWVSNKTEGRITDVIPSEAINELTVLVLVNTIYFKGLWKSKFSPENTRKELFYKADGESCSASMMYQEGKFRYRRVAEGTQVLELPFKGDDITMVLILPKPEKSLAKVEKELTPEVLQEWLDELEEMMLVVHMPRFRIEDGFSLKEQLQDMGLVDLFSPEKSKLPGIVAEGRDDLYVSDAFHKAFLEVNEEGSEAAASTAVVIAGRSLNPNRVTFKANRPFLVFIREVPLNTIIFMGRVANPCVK
Chain of Dopamine D1 (P21728 whole entry): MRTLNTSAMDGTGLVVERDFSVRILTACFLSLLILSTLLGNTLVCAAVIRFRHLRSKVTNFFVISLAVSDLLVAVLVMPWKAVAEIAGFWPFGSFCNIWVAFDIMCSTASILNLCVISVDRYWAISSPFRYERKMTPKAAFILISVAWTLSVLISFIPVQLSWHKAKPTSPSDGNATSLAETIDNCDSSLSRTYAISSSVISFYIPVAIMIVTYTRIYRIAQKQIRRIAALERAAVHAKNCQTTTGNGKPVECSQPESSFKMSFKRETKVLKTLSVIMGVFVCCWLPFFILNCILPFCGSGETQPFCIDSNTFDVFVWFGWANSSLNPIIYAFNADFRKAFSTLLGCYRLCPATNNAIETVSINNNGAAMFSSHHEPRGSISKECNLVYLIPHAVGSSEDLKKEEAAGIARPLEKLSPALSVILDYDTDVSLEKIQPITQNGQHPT
Chain of OPRM1 (P35372 whole entry, species assumed): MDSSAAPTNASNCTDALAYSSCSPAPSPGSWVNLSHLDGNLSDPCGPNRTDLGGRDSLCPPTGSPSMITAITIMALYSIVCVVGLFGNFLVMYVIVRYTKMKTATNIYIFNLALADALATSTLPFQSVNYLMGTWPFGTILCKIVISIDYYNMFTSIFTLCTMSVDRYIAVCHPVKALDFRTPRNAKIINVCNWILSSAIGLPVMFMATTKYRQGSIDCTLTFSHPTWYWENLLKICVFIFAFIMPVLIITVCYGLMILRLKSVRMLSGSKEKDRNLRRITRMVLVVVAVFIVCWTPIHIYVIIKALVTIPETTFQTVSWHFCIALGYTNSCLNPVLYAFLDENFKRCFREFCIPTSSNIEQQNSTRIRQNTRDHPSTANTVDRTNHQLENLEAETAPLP

## CCC[C@@H](NC(=O)c1cccc2c1CC(=O)N2)[C@@H](O)c1cccc(F)c1C [GSK716]
Dopamine D2
  EC50: > 100 µM
  IC50: > 100 µM
antithrombin
  inhibitory activity of antithrombin towards its cognate protease: did not affect
Adrenergic β2 [1]; Agonist
  EC50: > 100 µM
Adrenergic β2 [1]; Antagonist
  IC50: > 100 µM
neuroserpin
  inhibitory activity of neuroserpin towards its cognate protease: did not affect
Cannabinoid CB2
  EC50: > 100 µM
Dopamine D1
  IC50: > 100 µM
Adrenergic β2 [2]; Agonist
  EC50: > 100 µM
Adrenergic β2 [2]; Antagonist
  IC50: > 100 µM
Serotonin 5HT2C
  EC50: > 100 µM
  IC50: 50.1 µM
[3]
  IC50: 0.398 µM
Mouse hepatocytes
  metabolic clearance in mouse hepatocytes: 4.56 ml/min/g tissue
Vasopressin V1a
  IC50: > 50.1 µM
Dopamine D2 (DRD2S)
  EC50: > 100 µM
  IC50: > 100 µM
OPRM1
  EC50: 10 µM
Glucocorticoid Receptor
  EC50: > 100 µM
